The results in this text go back to US7659273B2, “Composition for accelerating bone fracture healing” (Mitsubishi Tanabe Pharma Corporation, priority 2001, dated 2010).

Each structure is given as a SMILES string.

One test deals with fibula fracture region. Description: Acceleration of fracture healing in normal rats, Compound (2) microspheres (Experimental Example 2). The format is in vivo, rat. The conditions noted are these: Example 7 microspheres; for Fibula Bone Mineral Content / Fibula Bone Volume / Fibula Bone Mineral Density: 2 weeks after suturing; for Fibula Bone Mineral Density: DXA at fracture region; for Breaking Energy: 4 weeks after suturing, three-point bending test. As to the method:
CD (SD) IGS rats (Charles River Japan, Inc.; male; 7-week-old) were housed for seven days at room temperature (23±2° C.) and 50±20% humidity. During the housing period, the rats were free to access commercially available food (from Oriental Bio; CE-2).
Under ether anesthesia, the left-lower legs of rats were shaved and sterilized with 70% aqueous ethanol; fibulas were exposed with scissors and cut with nail scissors (Natsume Seisakusyo; B17). The cut sections of the fibula were re-matched with tweezers. For the test groups (15 rats/group), the drug-containing microspheres prepared in Example 7, which contains 0.004, 0.02, 0.1 or 0.5 mg of Compound (2), were placed around the cutting site using spatula followed by suturing with silk thread. For the control group (15 rats/group), the same amount of drug-free microspheres prepared in Control Example 2 were placed around the cutting site using spatula followed by suturing with silk thread. Following the suturing, every animal was sterilized with 70% aqueous ethanol. Five rats at two weeks later and 10 rats at four weeks later were taken from each group and sacrificed by laparotomy with bleeding under ether anesthesia and the fibulas were excised.
The fibula excised at 2 weeks after suturing was subjected to DXA bone densitometer (from Aloka; DCS-600) to determine bone mineral density and bone mineral content at fracture region (scanning width: 1 mm).
The volume of fibula excised at 2 weeks after suturing was determined using Plethysmometer (Muromachi Kikai Co., Ltd.; TK-101).
The fibula excised at 4 weeks after suturing was subjected to a three-point bending test with bone strength tester (from Muromachi Kikai Co., Ltd.; TK-252C) to determine bone strength. Briefly, the fibula was supported by two supports apart from each other by 8 mm and the cut section was positioned at the middle of these supports, i.e., 4 mm apart from the respective two supports. Loading (3 mm/minute) from upper direction was kept on the middle point (fracture section) of fibula until fibula begins to fracture. The breaking force […] spent to break the bone was defined as the breaking energy.

The subject of test [1] is rabbit costicartilage cells. Description: Cartilage matrix (proteoglycan) production, Alcian blue staining (Experimental Examples 3 and 4). In kind it is cell-based. The conditions noted are these: summary of Tables 10 and 11. The source says: Costicartilages were isolated from NZ line rabbit (Kitayama Labes., Co Ltd.; male; 4-week-old) and soaked into Hank's balanced salt solution (calcium- and magnesium-free; LifeTech Co., Ltd.; hereinafter, referred to as “HBSS”). One costicartilage and one costa were excised together, the adipose tissue and the muscle tissue were removed and then, the proliferating chondrocyte layer of costicartilage was excised. The collected proliferating chondrocyte layer was cut into sections with a surgical knife (FEATHER Safety Razor Co., Ltd.) and the all proliferating chondrocyte layer sections from 4 rabbits were combined in a centrifuge tube. To the centrifuge tube was added 40 ml of HBSS (pH 7.2) supplied with 0.1% tetrasodium ethylenediamine tetraacetate to obtain suspension of the proliferating chondrocyte layer sections, which was shaken at 37° C. for 20 minutes and centrifuged (1500 rpm, 10 minutes). The supernatant was aspirated off, and 40 ml of HBSS (pH 7.2) supplied with 0.2% trypsin was added to the tube to suspend the precipitates and shaken at 37° C. for 1 hour. The tube was centrifuged (1500 rpm, 10 minutes), and the supernatant was aspirated off. The precipitates were washed twice with HBSS, suspended in 100 ml of HBSS supplied with 0.1% collagenase (Wako Pure Chemical Industries, Ltd., 034-10533) and shaken at 37° C. for 3 hours. The content of the tube was passed through the Cell Strainer (pore size 40 μm) and the filtrate was divided into four centrifuge tubes. To each of all four tubes was added 40 ml of medium (α-MEM, LifeTech Co., Ltd.), and the tubes were centrifuged (1500 rpm, 10 minutes). The supernatant was aspirated off, and the resultant precipitates were collected in one tube with Pipetman. After addition of 40 ml of the same medium, the tube was re-centrifuged (1500 rpm, 10 minutes). Washing procedure comprising addition of medium followed by centrifugation was repeated additional three times. The precipitates were suspended in the same medium to give an about 5 ml suspension, and the cell number was counted.
The suspension of costicartilage cell described above was added to 24-well plate at 50,000 cells per well (day 1). […]
After removing the medium, cells in each well were fixed by addition of 1 ml of neutral buffer containing 4% paraformaldehyde and incubation for 30 minutes at room temperature. […] Absorbance at 620 nm was measured, and cartilage matrix amount (proteoglycan production amount) in each well was estimated, and proteoglycan production rate (%) of each test compound for vehicle (100%) was calculated.
The cartilage matrix (proteoglycan) production was determined using other compounds (compounds (52)-(55) and Compound (2) for comparison) in exactly the same manner as Experimental Example 3 above.

With `CCOc1cc2cc(CO)c(CO)c(-c3ccnc(-n4nc(-c5cccnc5)c5ccccc5c4=O)c3)c2cc1OCC` [Compound (2)], in the test with fibula fracture region (drug content 0.004 mg), the “Fibula Bone Mineral Content” value is reported as 15.90 ± 1.88 mg, the “Fibula Bone Volume” value is 85.0 ± 8.14 µL, the “Fibula Bone Mineral Density” value amounted to 46.18 ± 3.18 mg/cm^2 and the “Breaking Energy” value is listed as 2.66 ± 0.49 mJ. In the test on fibula fracture region (drug content 0.02 mg), the “Fibula Bone Mineral Content” value worked out at 19.86 ± 1.75 mg, the “Fibula Bone Volume” value came to 97.6 ± 4.99 µL, the “Fibula Bone Mineral Density” value was 50.72 ± 2.68 mg/cm^2 and the “Breaking Energy” value amounted to 2.59 ± 0.55 mJ. Besides, in the test with fibula fracture region (drug content 0.1 mg), the “Fibula Bone Mineral Content” value is reported as 23.10 ± 2.72 mg, the “Fibula Bone Volume” value was determined as 121.6 ± 13.76 µL, the “Fibula Bone Mineral Density” value is given as 56.06 ± 4.19 mg/cm^2 and the “Breaking Energy” value came out at 3.15 ± 0.54 mJ. Moreover, in the test on fibula fracture region (drug content 0.5 mg), the “Fibula Bone Mineral Content” value is given as 23.24 ± 2.97 mg, the “Fibula Bone Volume” value stood at 132.2 ± 11.72 µL, the “Fibula Bone Mineral Density” value is recorded as 52.18 ± 4.36 mg/cm^2 and the “Breaking Energy” value worked out at 3.27 ± 0.61 mJ. In test [1], the “cartilage matrix (proteoglycan) production promoting effect (in words)” value is “remarkable matrix production promoting effect”.
